How the values were obtained:
β1 integrin = molecular target: T1, β1 integrin (Mus musculus, UniProt P09055); test: β1 integrin and active β1 integrin levels (antibody 9EG7) in PAN-treated murine podocytes; format: cell-based
T1 construct: we quantified the level of β1 in treated cells; endogenous in cells; host or cells: conditionally immortalized murine podocytes (from mouse line H-2Kb-tsA58)
Source text: FIG. 9A-9E. An An β1-integrin agonist pyrintegrin (pyr) protects podocytes from damage. (A) The published chemical structure of pyr. (Xu et al. PNAS, 2010.) (B-D) Pyr protects podocytes from PAN-induced loss of F-actin fibers and focal adhesions and enhances active β1-integrin levels. (B) Graphs showing the effect of pyr on the number of F-actin fibers per cell and the number of vinculin spots per cell under each treatment condition. Data shown are means 6 SEMs per cell from three replicate wells (n=500-1000 cells per well). **P, 0.01; ***P, 0.001; ****P, 0.001. (C) Representative fluorescence images of murine podocytes after various treatments and after staining with phalloidin and antiactive β1 antibody. Two-color costained images show cells stained with phalloidin (red) and anti-active β1 antibody 9EG7 (green). Images were acquired using the Opera HCS System. […] Data shown are means±SEMs per cell from four to five replicate wells (n=500-1000 cells per well). Scale bar, 50 μm. *P, 0.01; **P, 0.001. (D) Representative fluorescence images of human podocytes after various treatments as shown. Images show cells stained with phalloidin (red) and anti-active β1-integrin antibody 12G10 (green). Images were acquired using the Opera HCS System. […] Data shown are medians±SEMs per cell from four to five replicate wells (n=500-1000 cells per well). Scale bar, 50 μm. **P, 0.01; ***P, 0.001. (E) Pyr reduces injury-mediated increase in podocyte migration in a scratch wound-healing assay. Representative images (left panel) and a bar graph (right panel) showing confocal microscopy-based quantitation of the number of migrating podocytes in a scratch wound-healing assay Lines represent the wound margins at the beginning of the experiment (0 hours). The data presented in the graph are plotted as means±SEMs (n≧15). C, control. Scale bar, 50 μm. **P<0.01; ****P<0.001.
FIG. 16. […] The cellular damage was assessed after staining the cells with phalloidin, anti-paxillin and anti-integrin β1 antibodies and quantifying various cellular phenotypes using the HCS system. […]

mouse podocytes = test: Scratch, wound-healing assay (podocyte migration); format: cell-based; conditions: PAN or LPS treatment, cotreatment, 48 hours
Description: The effect of identified novel compounds on podocyte migration was assessed using a classic scratch, wound-healing assay as described. (Mathieson, Nat Rev Nephrol, 2012.) Differentiated mouse podocytes per well were seeded overnight in type-I collagen coated wells of a 24 well plate. Each well was subsequently scratched using a sterile 200 μI pipette tip, washed and placed into fresh culture medium. Cells in wells were also treated with PAN, LPS, pyr or a combination, as described in the text. After 48 h, cells were fixed with 2% paraformaldehyde and stained with DAPI. Images of cells near scratched surfaces and their DAPI-stained nuclei were acquired using a 10× objective using a Zeiss Axio Observer D1 microscope (Carl Zeiss Group, Hartford, Conn.) and analyzed using ImageJ software (NIH). Images using transmitted light were also acquired at the beginning and the end of the experiment and were used to align images of pre- and post-treated cells for counting cells that had migrated into similar sized fields. The data shown represent the mean±SEM of three independent experiments.
Next, we assessed the efficacy of this small molecule in a functional assay. In vitro, PAN- or LPS-mediated injury promotes directional migration and wound closure by podocytes in a scratch wound-healing assay.

SD rats = test: PAN-induced nephropathy in rats; format: in vivo, rat; conditions: PAN 150 mg/kg i.v., pyrintegrin 10 mg/kg daily for 14 days
Description: The induction of nephropathy in male wild type SD rats (n=6 per group) by PAN injection was performed as described. (Reiser et al., J Clin Invest, 2004; Wei et al., Nature Medicine, 2008; Nakamura et al., Lab Invest, 1991.) Briefly, 5 week old male rats were intravenously injected with PAN (150 mg/kg, in water) and treatment with vehicle or pyrintegrin was started on the same day. Animals in the vehicle group were administered saline-based vehicle solution (3.3% DMSO and 5% Cremaphor EL) intraperitoneally daily for 14 days. Animals in the treatment group were treated with pyrintegrin (10 mg/kg, 3.3% DMSO and 5% Cremaphor EL) in the saline based solution daily for 14 days. Spot urine was collected from animals for measurement of albuminuria as mg albumin per mg creatinine. (Faul et al., Nat Med, 2008) Results are expressed as mean±SEM.
Low-dose LPS decreases β1 integrin activation in podocytes and causes podocyte damage and proteinuria in mice. (Yu et al., N Engl J Med, 2013) Here, we used this model to test whether pyrintegrin, by preserving active β1 integrin in podocytes, is able to suppress podocyte FP effacement and the development of proteinuria in live animals. […] Given that pyrintegrin protected podocytes from PAN-induced damage in vitro, we also tested the efficacy of pyrintegrin in a PAN injury model.

T1 sequence (P09055 21-798): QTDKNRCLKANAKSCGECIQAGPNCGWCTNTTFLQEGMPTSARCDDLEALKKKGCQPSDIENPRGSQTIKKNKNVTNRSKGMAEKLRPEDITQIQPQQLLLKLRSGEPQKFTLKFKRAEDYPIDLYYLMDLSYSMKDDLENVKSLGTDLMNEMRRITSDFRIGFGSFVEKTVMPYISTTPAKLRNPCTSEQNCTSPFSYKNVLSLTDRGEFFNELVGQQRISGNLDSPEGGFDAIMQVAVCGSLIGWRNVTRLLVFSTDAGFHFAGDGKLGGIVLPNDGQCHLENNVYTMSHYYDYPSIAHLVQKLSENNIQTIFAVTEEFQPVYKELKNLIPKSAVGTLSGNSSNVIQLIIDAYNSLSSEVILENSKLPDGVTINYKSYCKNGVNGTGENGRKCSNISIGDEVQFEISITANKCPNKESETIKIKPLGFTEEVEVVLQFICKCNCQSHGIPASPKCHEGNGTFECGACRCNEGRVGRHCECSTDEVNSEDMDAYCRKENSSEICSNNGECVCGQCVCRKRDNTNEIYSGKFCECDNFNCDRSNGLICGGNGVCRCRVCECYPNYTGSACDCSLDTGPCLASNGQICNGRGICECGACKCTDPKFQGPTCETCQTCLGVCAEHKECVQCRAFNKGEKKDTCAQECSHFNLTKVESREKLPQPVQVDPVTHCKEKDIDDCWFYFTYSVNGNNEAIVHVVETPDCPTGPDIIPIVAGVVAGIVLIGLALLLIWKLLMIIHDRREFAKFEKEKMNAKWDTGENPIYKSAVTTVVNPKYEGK
T1 sequence (Q62470 33-1053 partner): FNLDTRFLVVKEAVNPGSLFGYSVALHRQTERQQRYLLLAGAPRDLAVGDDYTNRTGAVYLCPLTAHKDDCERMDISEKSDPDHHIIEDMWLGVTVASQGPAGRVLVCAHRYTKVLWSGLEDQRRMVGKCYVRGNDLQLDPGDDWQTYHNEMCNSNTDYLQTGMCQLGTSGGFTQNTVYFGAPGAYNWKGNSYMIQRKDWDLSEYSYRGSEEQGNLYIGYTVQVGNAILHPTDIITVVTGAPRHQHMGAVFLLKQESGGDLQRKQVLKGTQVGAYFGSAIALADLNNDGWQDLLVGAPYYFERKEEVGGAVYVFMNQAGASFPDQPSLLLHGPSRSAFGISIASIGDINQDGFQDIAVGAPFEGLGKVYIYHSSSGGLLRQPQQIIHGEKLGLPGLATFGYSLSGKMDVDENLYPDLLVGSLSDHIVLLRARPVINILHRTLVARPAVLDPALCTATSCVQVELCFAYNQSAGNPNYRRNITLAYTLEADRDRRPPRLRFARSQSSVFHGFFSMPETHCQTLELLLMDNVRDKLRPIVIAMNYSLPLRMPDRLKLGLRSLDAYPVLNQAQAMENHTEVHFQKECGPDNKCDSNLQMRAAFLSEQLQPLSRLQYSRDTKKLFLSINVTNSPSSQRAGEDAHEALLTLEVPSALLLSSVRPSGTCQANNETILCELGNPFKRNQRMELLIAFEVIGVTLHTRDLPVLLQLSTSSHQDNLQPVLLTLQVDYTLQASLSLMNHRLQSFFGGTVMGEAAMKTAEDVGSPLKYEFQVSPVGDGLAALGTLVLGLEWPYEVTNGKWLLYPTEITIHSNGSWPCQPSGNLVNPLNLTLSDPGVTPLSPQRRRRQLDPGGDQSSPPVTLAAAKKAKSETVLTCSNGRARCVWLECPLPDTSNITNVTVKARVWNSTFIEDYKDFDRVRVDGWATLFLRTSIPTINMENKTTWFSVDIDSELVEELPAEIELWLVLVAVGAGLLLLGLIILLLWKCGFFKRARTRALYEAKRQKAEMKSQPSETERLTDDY

## O=S(=O)(NCC1CC1)c1ccc(Nc2nccc(N3CCCc4cc(O)ccc43)n2)cc1 [Pyrintegrin]
β1 integrin; PAN 30 μg/mL, pyr 1 μM cotreatment, 48 h (FIG. 16)
  β1 levels in podocytes: preserved
β1 integrin; PAN cotreatment
  active β1 levels in podocytes (antibody 9EG7): significant loss of active β1 levels in podocytes but not on treatment with pyrintegrin
β1 integrin; healthy cells, no PAN
  active β1 levels in healthy cells: significant increase in active β1 levels
Mouse podocytes
  podocyte motility and wound closure: significantly reduced podocyte motility and wound closure
SD rats
  albuminuria caused by PAN-induced nephropathy: significantly reduced albuminuria
